Measured values reported in patent publication US7179814B2, “Agents for controlling plant pests” (priority 1998, dated 2007).
Where two headings read alike, the source gives them in different places.

Tests used:
Phytophthora infestans = type: in vivo; conditions: single active compound
[1] = system: Diabrotica balteata - larvae in the soil; assay: Critical concentration test/soil insects, Diabrotica balteata (Example Q); type: in vivo; conditions: 10.00 ppm in soil; efficacy calculated from number of emerged maize plants
Protocol: To produce a suitable preparation of active compound, 1 part by weight of active compound is mixed with the stated amount of solvent, the stated amount of emulsifier is added and the concentrate is diluted with water to the desired concentration. Here, the concentration of the active compound in the preparation is almost irrelevant; only the amount by weight of active compound per volume unit of soil, which is stated in ppm (mg/l), matters. The soil is filled into 0.5 l pots and these are allowed to stand at 20° C.
Immediately after preparation, 5 maize corns are placed into each pot. After 3 days, the test insects are placed into the treated soil. After a further 7 days, the efficacy is determined. The efficacy is calculated from the number of maize plants which have emerged.

[2] = system: green rice leaf hopper (Nephotettix cincticeps); assay: Nephotettix test (rice seedling dip); type: in vivo
Protocol: (§1) To produce a suitable preparation of active compound, 1 part by weight of an active compound or an active compound combination is mixed with the stated amounts of solvent and emulsifier, and the concentrate is diluted with water to the desired concentration.
Rice seedlings (Oryza sativa) are treated by being dipped into the active compound preparation of the desired concentration and are populated with the green rice leaf hopper (Nephotettix cincticeps) while the leaves are still moist.
After the desired period of time, the kill in % is determined. 100% means that all the leaf hoppers have been killed; 0% means that none of the leaf hoppers have been killed.

[3] = system: caterpillars of the diamondback moth (Plutella xylostella); assay: Plutella test (cabbage leaf dip); type: in vivo
Protocol: as §1
Cabbage leaves (Brassica oleracea) are treated by being dipped into the preparation of active compound of the desired concentration and are populated with caterpillars of the diamondback moth (Plutella xylostella) while the leaves are still moist.
After the desired period of time, the kill in % is determined 100% means that all caterpillars have been killed; 0% means that none of the caterpillars have been killed.

[4] = system: Diabrotica balteata larvae in soil; assay: Critical concentration test/soil insects, Diabrotica balteata; type: in vivo; conditions: 20.0 ppm in soil, 7 days after infestation; for pest or weed control at 20 ppm: Diabrotica balteata, 168 h, read-out: Kill in %
Protocol: (§2) To produce a suitable preparation of active compound, 1 part by weight of the active compound or the active compound mixture is mixed with the stated amounts of solvent and emulsifier, and the concentrate is diluted with water to the desired concentration.
(§3) The active compound preparation is mixed intimately with soil. Here, the concentration of the active compound in the preparation is almost irrelevant; only the amount by weight of active compound or active compound mixture per volume unit of soil, which is stated in ppm (mg/l), matters.
Soil is filled into 0.5 l pots and these are allowed to stand at 20° C. Immediately after preparation, 5 pre-germinated maize corns are placed into each pot. After 2 days, the test insects are placed into the treated soil. After a further 7 days, the kill in % is determined. 100% means that all test insects have been killed; 0% means that none of the test insects have been killed.

Spodoptera frugiperda = assay: Critical concentration test/soil insects, Spodoptera frugiperda; type: in vivo; conditions: 120 h, 20.00 ppm in soil, 5 days after infestation, read-out: Kill in %
Protocol: as §2, §3
Soil is filled into 0.5 l pots and these are allowed to stand at 20° C. Immediately after preparation, 3 pre-germinated maize corns are placed into each pot. After the maize corns have emerged, boring sleeves are placed onto the pots. 9 days after preparation, the maize is populated with the test insects. After a further 5 days, the kill in % is determined. 100% means that all test insects have been killed; 0% means that the number of insects which are still alive is the same as for the untreated control.

Botrytis cinerea = assay: Botrytis test (bean)/protective; type: in vivo; conditions: single active compound
Protocol: as §1, with “of” for “of an”, “or” for “or an”, “desired concentration, or a commercial formulation of active compound or active compound combination is diluted with water to the desired” for “desired”
To test for protective activity, young plants are sprayed with the active compound preparation at the stated application rate. After the spray coating has dried on, 2 small pieces of agar colonized by Botrytis cinerea are placed onto each leaf. The inoculated plants are placed in a dark chamber at approximately 20° C. and 100% relative atmospheric humidity.
2 days after the inoculation, the size of the disease spots on the leaves is evaluated. 0% means an efficacy which corresponds to that of the control, whereas an efficacy of 100% means that no infection is observed.

Pyrenophora teres = Pyrenophora teres test (barley)/protective; type: in vivo; conditions: single active compound
Protocol: as §1, with “of” for “of an”, “or” for “or an”, “desired concentration, or a commercial formulation of active compound or active compound combination is diluted with water to the desired” for “desired”
(§4) To test for protective activity, young plants are sprayed with the active compound preparation at the stated application rate. After the spray coating has dried on, the plants are sprayed with a conidia suspension of Pyrenophora teres. The plants remain in an incubation cabin at 20° C. and 100% relative atmospheric humidity for 48 hours.
The plants are then placed in a greenhouse at a temperature of approximately 20° C. and a relative atmospheric humidity of approximately 80%.
(§5) Evaluation is carried out 7 days after the inoculation. 0% means an efficacy which corresponds to that of the control, whereas an efficacy of 100% means that no infection is observed.

[5] = system: Phaedon cochleariae larvae; assay: Critical concentration test/root-systemic action, Phaedon cochleariae; type: in vivo; conditions: 72 h, 20.00 ppm in soil, root-systemic, 3 days after infestation, read-out: Kill in %
Protocol: as §2, §3
Soil is filled into 250 ml pots and these are planted with cabbage (Brassica oleracea). The active compound or the active compound combination can thus be taken up by the plant roots from the soil and transported into the leaves.
After 7 days, the leaves are populated with the abovementioned test animals. After a further 3 days, the kill in % is determined. 100% means that all test insects have been killed; 0% means that the number of insects which are still alive is the same as in the untreated control.

[6] = system: Erysiphe graminis f.sp. hordei; assay: Erysiphe test (barley)/protective; type: in vivo; conditions: single active compound
Protocol: as §1, with “of” for “of an”, “or” for “or an”, “desired concentration, or a commercial formulation of active compound or active compound combination is diluted with water to the desired” for “desired”
(§6) To test for protective activity, young plants are sprayed with the preparation of active compound at the stated application rate.
After the spray coating has dried on, the plants are dusted with spores of Erysiphe graminis f.sp. hordei.
(§7) The plants are placed in a greenhouse at a temperature of approximately 20° C. and a relative atmospheric humidity of approximately 80% to promote the development of mildew pustules.
as §5

[7] = system: larvae of the mustard beetle (Phaedon cochleariae); assay: Phaedon larvae test (cabbage leaf dip); type: in vivo
Protocol: as §1
Cabbage leaves (Brassica oleracea) are treated by being dipped into the preparation of active compound of the desired concentration and are populated with larvae of the mustard beetle (Phaedon cochleariae) while the leaves are still moist.
After the desired period of time, the kill in % is determined. 100% means that all beetle larvae have been killed; 0% means that none of the beetle larvae have been killed.

Sphaerotheca fuliginea = assay: Sphaerotheca test (cucumber)/protective; type: in vivo; conditions: 10 g/ha, single active compound, 10 days after inoculation
Protocol: as §1, with “of” for “of an”, “or” for “or an”, “desired concentration, or a commercial formulation of active compound or active compound combination is diluted with water to the desired” for “desired”
To test for protective activity, young plants are sprayed with the commercial active compound preparation at the stated application rate. After the spray coating has dried on, the plants are inoculated with an aqueous spore suspension of Sphaerotheca fuliginea. The plants are then placed in a greenhouse at approximately 23° C. and a relative atmospheric humidity of approximately 70%.
(§8) Evaluation is carried out 10 days after the inoculation. 0% means an efficacy which corresponds to that of the control, whereas an efficacy of 100% means that no infection is observed.

[8] = system: Heliothis virescens caterpillars; assay: Heliothis virescens test (soya bean shoot dip); type: in vivo
Protocol: as §1
Soya bean shoots (Glycine max) are treated by being dipped into the active compound preparation of the desired concentration and are populated with Heliothis virescens caterpillars while the leaves are still moist.
After the desired period of time, the kill in % is determined. 100% means that all caterpillars have been killed; 0% means that none of the caterpillars have been killed.

Fusarium culmorum = Fusarium culmorum test (wheat)/seed treatment; type: in vivo; conditions: 75 g/ha, dry seed dressing, approximately 3 weeks after sowing
Protocol: The active compounds are applied as a dry dressing. They are prepared by extending the active compound in question with ground minerals to give a finely pulverulent mixture which ensures even distribution on the surface of the seeds.
For the dressing, the infected seeds are shaken with the dressing in a closed glass bottle for 3 minutes.
2×100 seeds of the wheat are sown at a depth of 1 cm into standard soil, and the wheat is cultivated in a greenhouse at a temperature of approximately 18° C. and at a relative atmospheric humidity of approximately 95% in seed containers receiving 15 hours of light per day.
The evaluation of the plants for symptoms is carried out approximately 3 weeks after sowding. 0% means an efficacy which corresponds to that of the control, whereas an efficacy of 100% means that no infection is observed.

green peach aphid = assay: Myzus test (cabbage leaf dip); type: in vivo, Myzus (green peach aphid); conditions: concentration 0.1 %
Protocol: as §1
Cabbage leaves (Brassica oleracea) which are heavily infested by the green peach aphid are treated by being dipped into the active compound preparation of the desired concentration.
After the desired period of time, the kill in % is determined. 100% means that all aphids have been killed; 0% means that none of the aphids have been killed.

[9] = system: Erysiphe graminis f.sp. tritici; assay: Erysiphe test (wheat)/protective; type: in vivo; conditions: single active compound
Protocol: as §1, with “of” for “of an”, “or” for “or an”, “desired concentration, or a commercial formulation of active compound or active compound combination is diluted with water to the desired” for “desired”
as §6
After the spray coating has dried on, the plants are dusted with spores of Erysiphe graminis f.sp. tritici.
as §7, §5

Puccinia recondita = assay: Puccinia test (wheat)/protective; type: in vivo; conditions: 62.5 g/ha, 10 days after inoculation
Protocol: as §1, with “of” for “of an”, “or” for “or an”, “desired concentration, or a commercial formulation of active compound or active compound combination is diluted with water to the desired” for “desired”
as §4, with “Puccinia recondita.” for “Pyrenophora teres.”
The plants are then placed in a greenhouse at a temperature of approximately 20° C. and a relative atmospheric humidity of 80% to promote the development of rust pustules.
as §8

[10] = 62.5 g/ha, 7 days after inoculation

Cc1ccc(C(C)NC(=O)C(NC(=O)OC(C)C)C(C)C)cc1 (racemic) [SZX722]
Efficacy in % (Phytophthora infestans; 10 g/ha): 88%

OC(Cc1ccccc1Cl)(Cn1nc[nH]c1=S)C1(Cl)CC1 (stereo not drawn) [(49)]
Kill in % at active compound concentrations in ppm [1]: 10.00 ppm = 0%

CN(C)C(=S)SSC(=S)N(C)C [TMTD]
Kill in % ([2]; concentration 0.1 %): 0%
Kill in % ([3]; concentration 0.1 %): 0%
pest or weed control at 20 ppm [4]: 0%

CO/C=C(/C(=O)OC)c1ccccc1Oc1cc(Oc2ccccc2C#N)ncn1 [azoxystrobin]
pest or weed control at 20 ppm (Spodoptera frugiperda): 0%
Efficacy in % (Phytophthora infestans; 10 g/ha): 74%
Efficacy in % (Botrytis cinerea; 40 g/ha): 42%
pest or weed control at 20 ppm [4]: 0%
Efficacy in % calculated/found (Pyrenophora teres; 18.75 g/ha): 0%
pest or weed control at 20 ppm [5]: 0%

CC(C)(C)C(O)C(Oc1ccc(-c2ccccc2)cc1)n1cncn1 (stereo not drawn) [bitertanol]
pest or weed control at 20 ppm (Spodoptera frugiperda): 0%
Efficacy in % (Botrytis cinerea; 500 g/ha): 30%
Efficacy in % calculated/found ([6]; 18.75 g/ha): 0%
pest or weed control at 20 ppm [4]: 0%
pest or weed control at 20 ppm [5]: 0%

CC(C1CC1)C(O)(Cn1cncn1)c1ccc(Cl)cc1 (stereo not drawn) [cyproconazole]
Kill in % ([3]; concentration 0.004 %): 0%
pest or weed control at 20 ppm (Spodoptera frugiperda): 0%
Kill in % ([7]; concentration 0.004 %): 10%
Efficacy in % (Sphaerotheca fuliginea): 70%
Kill in % ([8]; concentration 0.004 %): 0%
pest or weed control at 20 ppm [4]: 0%
Efficacy in % (Fusarium culmorum): 1%

N#Cc1c[nH]cc1-c1cccc(Cl)c1Cl [fenpiclonil]
Kill in % ([3]; concentration 0.1 %): 0%
pest or weed control at 20 ppm (Spodoptera frugiperda): 0%
Kill in % (green peach aphid): 0%
pest or weed control at 20 ppm [4]: 0%
pest or weed control at 20 ppm [5]: 0%

N#Cc1c[nH]cc1-c1cccc2c1OC(F)(F)O2 [fludioxonil]
Kill in % ([2]; concentration 0.02 %): 0%
Efficacy in % (Botrytis cinerea; 10 g/ha, 2 days after inoculation): 40%
pest or weed control at 20 ppm [4]: 0%
Efficacy in % (Fusarium culmorum): 0%

CO/N=C(/C(=O)OC)c1ccccc1COc1ccccc1C [kresoxim-methyl]
Kill in % ([7]; concentration 0.1 %): 0%
Efficacy in % calculated/found [6, 10]: 0%
pest or weed control at 20 ppm [4]: 0%
Efficacy in % calculated/found ([9]; 18.75 g/ha): 43%
Efficacy in % calculated/found [9, 10]: 79%

COCC(=O)N(c1c(C)cccc1C)C(C)C(=O)OC (stereo not drawn) [metalaxyl]
Kill in % ([2]; concentration 0.1 %): 0%
pest or weed control at 20 ppm (Spodoptera frugiperda): 0%
Kill in % (green peach aphid): 0%
pest or weed control at 20 ppm [4]: 0%
pest or weed control at 20 ppm [5]: 0%

O=C(Nc1ccccc1)N(Cc1ccc(Cl)cc1)C1CCCC1 [pencycuron]
Kill in % ([2]; concentration 0.1 %): 0%
Kill in % ([3]; concentration 0.1 %): 0%
Kill in % (green peach aphid): 0%
pest or weed control at 20 ppm [4]: 0%

CCCC1COC(Cn2cncn2)(c2ccc(Cl)cc2Cl)O1 (stereo not drawn) [propiconazole]
Efficacy in % (Puccinia recondita): 75%
Kill in % ([2]; concentration 0.004 %): 0%
pest or weed control at 20 ppm (Spodoptera frugiperda): 0%
Efficacy in % (Phytophthora infestans; 500 g/ha, 3 days after inoculation): 5%
pest or weed control at 20 ppm [4]: 0%
Efficacy in % calculated/found (Pyrenophora teres; [10]): 0%
pest or weed control at 20 ppm [5]: 0%

CC(C)(C)C(O)(CCc1ccc(Cl)cc1)Cn1cncn1 (stereo not drawn) [tebuconazole]
pest or weed control at 20 ppm (Spodoptera frugiperda): 0%
pest or weed control at 20 ppm [4]: 0%
Efficacy in % calculated/found (Pyrenophora teres; [10]): 50%
pest or weed control at 20 ppm [5]: 0%

CC(C)(C)C(O)C(Oc1ccc(Cl)cc1)n1cncn1 (stereo not drawn) [triadimenol]
pest or weed control at 20 ppm (Spodoptera frugiperda): 0%
pest or weed control at 20 ppm [4]: 0%
Efficacy in % calculated/found (Pyrenophora teres; 18.75 g/ha): 40%
pest or weed control at 20 ppm [5]: 0%

tolylfluanid
Kill in % ([2]; concentration 0.02 %): 0%
Kill in % ([3]; concentration 0.02 %): 0%
Efficacy in % (Phytophthora infestans; 50 g/ha): 34%
Kill in % ([8]; concentration 0.02 %): 0%
Kill in % [4]: 0%
